Experimental data: patent US8546447B2, “Treatment of acne using derivatives of 5-aminolevulinic acid” (Photocure ASA, priority 2004, dated 2013)

Key:
[1] = test system: Propionibacterium acnes (P. acnes); experiment: Dark toxicity of ALA esters in P. acnes (survival assay, colony forming ability); type: cell-based; details: for % CFU (mean normalised colony-forming units): 4 hours in the dark at 37° C.; for dark toxicity (FIG. 2): Example 1, concentrations up to 20 mM, 4 hours in the dark
Procedure: (§1) Propionibacterium acnes (P. acnes) was obtained from American Type Culture Collection (ATCC No. 6919), and bacteria were grown anaerobically in the dark on blood-agar plates at 37° C.
(§2) PIPES buffer (ca. 1 ml) was added to each blood-agar petri-plate and with the help of a sterile glass-rod and a Pasteur pipette, the bacteria solution was transferred to a 20 ml test-tube. The suspension was then diluted with PIPES buffer until the optical density (OD) was 1.00±0.01 at 550 nm as measured by a spectrophotometer.
(§3) A bacteria sample (100 μl of the suspension containing approx. 5×10^8 bacteria per ml) was collected and used as a t=0 control. Aliquots of the bacteria suspension were mixed with suitable volumes of the stock solutions of 5-ALA esters (containing 100 mM ALA ester) to obtain the appropriate concentrations and incubated for 4 hours at 37° C. in the dark. If illumination was not performed, survival was then assessed as described below.
(§4) After treatment with ALA esters (with or without illumination), the treated bacteria samples (as well as untreated controls) were collected and further diluted with PIPES buffer to 1×10^4 bacteria per ml. Aliquots of 20 ml of this suspension were then transferred to Bactoagar Petri-dishes (Futsaether et al., Can. J. Microbiol., 39(2): 180-186 1993), and incubated for 3-5 days at 37° C. in the dark. The colonies formed on the Bactoagar Petri-plates were counted using a colony counter. Cell survival after incubation with different concentrations of 5-ALA esters is given relative to the control samples (i.e. samples collected at t=0 hrs and the sample collected after 4 hrs incubation without 5-ALA ester) and given as percent survival: Survival=[Ctreated/Ccontrol]×100%
In order to find suitable conditions for studying the photodynamic effect in P. acnes after incubation with ALA esters, a study was performed to assay the toxicity of the esters. This was done in the dark to avoid any PDT effect caused by stray light.
In order to find suitable conditions for studying the photodynamic effect in P. acnes after incubation with benzyl-, 4-chlorobenzyl-, 4-nitrobenzyl-, 2-methylbenzyl-, 4-methylpentyl- and 2-methoxyethyl 5-aminolevulinate, a study was performed to assay the toxicity of these compounds. This was done in the dark, as in Example 1, to avoid any PDT effect caused by stray light.

[2] = test system: P. acnes; experiment: PDT with CureLight LED 128 (Aktilite) lamp, P. acnes survival; type: cell-based, Propionibacterium acnes; details: for PDT effect, photodynamic inactivation (FIG. 10) / kill: 0.4 mM; for PDT effect, photodynamic inactivation (FIG. 10): Aktilite 128 lamp; for kill: 10 minutes illumination; for bacteria killed: 26 minutes of illumination (78 J/cm^2)
Procedure: as §1
as §2, with “spectrophotometer. At this OD the bacteria density is approximately 5×10^8 cells per ml.” for “spectrophotometer.”
as §3, §4
In order to compare the ALA hexyl ester and the ALA benzyl ester at the same concentration (1 mM), and also to test another light source, another experiment involving the use of a narrow-band red light (CureLight LED 128 lamp sold under the tradename Aktilite by Photocure ASA, Norway) was conducted. This lamp consists of 128 light emitting diodes (LED) and has a peak wavelength of 634±3 nm. The emission spectrum of the lamp has a full width at half maximum (FWHM) of 18 nm. The fluence rate at 50 mm distance is approx. 50 mW/cm^2 (max. fluence rate variation of the target area is ±10%).
After incubation with the ALA esters, 10 ml bacterial suspensions were irradiated in a 5.5 cm plastic petri-dish (see general section above). The petri-dishes were placed on a support lying in a large water-reservoir at ambient temperature in order to avoid temperature effects. […] After 3-5 days of incubation (at 37° C. in the dark) the survival was determined as described in the general section and given relative to the non-illuminated control sample.
Photodynamic inactivation of P. acnes after incubation with the 5-ALA esters listed in Example 9 (at 0.4 mM concentration) was studied following illumination with an Aktilite® 128 lamp.

[3] = Itoh et al. 2001; Hongcharau et al. 2000; cited from earlier work
[4] = test system: P. acnes; experiment: PDT with CureLight BroadBand lamp, P. acnes survival; type: cell-based, Propionibacterium acnes; details: for effectiveness to kill the bacteria (FIG. 3): 4 mM methyl ester, 4 mM benzyl ester, 1 mM hexyl ester, red light 580-740 nm
Procedure: as §1
as §2, with “spectrophotometer. At this OD the bacteria density is approximately 5×10^8 cells per ml.” for “spectrophotometer.”
as §3
In some cases, illumination was performed on the bacteria-suspensions treated with ALA esters. The exact conditions are described in the Examples below. After illumination, survival was assayed as described below.
as §4
Bacteria suspensions (P. acnes) were treated with 4 mM ALA methyl ester, 4 mM benzyl ester and 1 mM hexyl ester (due to high dark toxicity results for this ester) as described in the general section above, diluted and illuminated using a CureLight BroadBand lamp (available from PhotoCure ASA, Norway, red light of 580-740 nm and a fluence rate of ≦840 W/m^2) under temperature controlled conditions (e.g. at ambient temperature). During illumination, 2×20 μl aliquots were collected every second minute for at total of 10 minutes and assayed for survival as described in the general section above. Relative survival after illumination was calculated relative to the control sample without red light exposure.

[5] = test system: P. granulosum; experiment: Dark toxicity in P. granulosum; type: cell-based, Propionibacterium granulosum
Procedure: Propionibacterium granulosum (P. granulosum) was obtained from American Type Culture Collection (ATCC No. 25564).
as §2, with “spectrophotometer. At this OD the bacteria density is approximately 5×10^8 cells per ml.” for “spectrophotometer.”
as §3
After treatment with ALA esters (with or without illumination), the treated bacteria samples (as well as untreated controls) were collected and further diluted with PIPES buffer to 1×10^4 bacteria per ml. […] The colonies formed on the Bactoagar Petri-plates were counted using a colony counter. […]

[6] = test system: P. avidum; experiment: Dark toxicity in P. avidum; type: cell-based, Propionibacterium avidum
Procedure: Propionibacterium avidum (P. avidum) was obtained from ATCC (ATCC No. 25577).
as §2, with “spectrophotometer. At this OD the bacteria density is approximately 5×10^8 cells per ml.” for “spectrophotometer.”
as §3
After treatment with ALA esters (with or without illumination), the treated bacteria samples (as well as untreated controls) were collected and further diluted with PIPES buffer to 1×10^4 bacteria per ml. Aliquots of 20 ml of this suspension were then transferred to Bactoagar Petri-dishes (Futsaether et al., Can. J. Microbiol., 39(2): 180-186 1993), and incubated for 3-5 days at 37° C. in the dark. The colonies formed on the Bactoagar Petri-plates were counted using a colony counter. […]

[7] = test system: P. acnes; experiment: Intracellular porphyrin formation in P. acnes (fluorescence emission); type: cell-based, Propionibacterium acnes; details: four hours incubation at 37° C. in the dark, various concentrations
Procedure: To study the intracellular porphyrin formation after incubation with the ALA esters, bacteria (5×10^8 cells per ml, 10 ml) were incubated with ALA esters at 37° C. in the dark for four hours. The formation of porphyrins was followed by studying the fluorescence emission spectra (the porphyrins display characteristic peaks). The procedure was as follows:
To assess the amount of endogenously retained porhyrins, 8 ml of the 5-ALA ester incubated bacteria were added to plastic test-tubes and incubated at 2-3° C. in the refrigerator to halt further 5-ALA ester uptake and/or porhyrin formation. Then the cells from were pelleted by centrifugation (5000 g, 5 rain, 2-3° C.), the supernatant discarded and the cells resuspended in fresh buffer (8 ml) and mixed well. Aliquots of 2 ml bacterial suspension were transferred to standard disposable plastic cuvettes, and fluorescence emission spectra of the cell suspensions were determined in a Perkin Elmer LS 50B fluorescence spectrometer using the following settings:
Excitation wavelength, λx: 405 nm
Emission wavelength, λe: 550-700 nm
Excitation and emission slits: 5 nm
Emission monochromator speed: 300 nm/min
The fairly broad range of wavelengths measured was motivated by the need to have a control of the autofluorescence from the bacteria, which is most easily discernable at the lower or higher wavelengths.

[8] = Example 9, concentrations up to 20 mM
[9] = hexylester compared with benzylester

Row | Structure (SMILES) | % CFU (mean normalised colony-forming units) ([1]; 0.4 mM) [%] | % CFU (mean normalised colony-forming units) ([1]; 4 mM) [%] | % CFU (mean normalised colony-forming units) ([1]; 20 mM) [%] | PDT effect, photodynamic inactivation (FIG. 10) [2] | kill [2] | effectiveness to kill the bacteria (FIG. 3) [4] | dark toxicity (FIG. 2) [1] | inducing porphyrin formation (FIG. 5) [7] | other results
1 | COCCOC(=O)CCC(=O)CN [2-methoxyethyl, 2-methoxyethyl 5-aminolevulinate] | 75.5 | 60.8 | 54.0 | weaker PDT effect | – | – | – | – | dark toxicity (in words) [1, 8]: almost no toxicity
2 | Cc1ccccc1COC(=O)CCC(=O)CN [2-methylbenzyl, 2-methylbenzyl ALA ester] | 66.0 | 1.2 | 0.0 | good abilities to kill the bacteria | approx. 50% | – | – | – | dark toxicity (in words) ([1]; Example 9, at 4 mM): considerable toxicity
3 | NCC(=O)CCC(=O)OCc1ccc(Cl)cc1 [4-chlorobenzyl, 4-chlorobenzyl ALA ester] | 81.6 | 3.7 | 0.0 | most efficient | ~100% | – | – | – | dark toxicity (in words) ([1]; Example 9, at 4 mM): considerable toxicity
4 | CC(C)CCCOC(=O)CCC(=O)CN [4-methylpentyl, 4-methylpentyl ALA ester] | 86.5 | 37.3 | 0.5 | weaker PDT effect | – | – | – | – | –
5 | NCC(=O)CCC(=O)OCc1ccc([N+](=O)[O-])cc1 [4-nitrobenzyl, 4-nitrobenzyl ALA ester] | 63.5 | 61.8 | 53.2 | most efficient | ~100% | – | – | – | dark toxicity (in words) [1, 8]: almost no toxicity
6 | NCC(=O)CCC(=O)O [5-ALA, 5-amino-4-oxo-pentanoic acid] | – | – | – | – | – | – | – | – | adverse effects of ALA-PDT [3]: significant adverse effects; efficacy of ALA-PDT for treatment of acne [3]: may be effective
7 | CCCCCCOC(=O)CCC(=O)CN [ALA hexyl ester, Hexyl 5-aminolevulinate] | – | – | – | – | – | quite effective | very toxic | least effective | bacteria killed ([2]; 1 mM): 40%; killed ([5]; 4 mM, dark): 100%; dark toxicity (FIG. 6) [5, 9]: considerably more toxic; killed ([6]; 4 mM, dark): 100%; dark toxicity (FIG. 6) [6, 9]: considerably more toxic
8 | COC(=O)CCC(=O)CN [ALA methyl ester, methyl ALA ester] | – | – | – | – | – | least effective | essentially non-toxic | slightly higher porphyrin levels | –
9 | NCC(=O)CCC(=O)OCc1ccccc1 [Benzyl, benzyl 5-aminolevulinate] | 78.3 | 62.9 | 15.0 | good abilities to kill the bacteria | approx. 50% | most effective | intermediate toxicity | by far the most effective inducer | light dose sufficient to obtain 100% kill ([4]; 4 mM, CureLight BroadBand lamp): approx. 10 J/cm^2; bacteria killed ([2]; 1 mM): killed all bacteria; photodynamic effect (FIG. 4) ([2]; 1 mM, LED lamp 634 nm): much better photodynamic effect
